Test results reported in patent publication US20220168384A1, “Anti-Bacterial Combination Therapy” (McMaster University, priority 2019, published 2022).
Entries after “also recorded” stand apart in the source; their conditions may differ. Where two headings read alike, the source gives them in different places.

How the values were obtained:
P. aeruginosa PA14 [1] = assay: Dose response and checkerboard assays against PA14; assay type: cell-based, Pseudomonas aeruginosa; conditions: for synergy with DSX: checkerboard of DSX with antibiotic; for one-eighth of MIC against PA14 (test concentration): Pseudomonas aeruginosa, concentration used in clinical isolate testing, read-out: ⅛^th the MIC of PA14
Description: Checkerboard assays were set-up using Nunc 96-well plates in an 8-well by 8-well format. Two columns were allocated for vehicle controls and two columns for sterility controls. Vehicle controls contained 2 μL DMSO plus 2 μL DFP solvent for checkerboards with TS and DFP or 4 μL DMSO for TS and DSX, in 146 μL of 10:90 medium or 10% serum inoculated with PA14 or PAO1-KP as described in Growth Curves. Sterile controls contained the same components in 10:90 medium or 10% serum, without cells. Serial dilutions of TS—with 17 μg/mL being the highest final concentration—were added along the y axis of the checkerboard (increasing concentration from bottom to top) whereas serial dilutions of DFP or DSX—with 512 μg/mL being the highest final concentration—were added along the x axis (increasing concentration from left to right). The final volume of each well was 150 μL and each checkerboard was repeated at least three times. Plates were incubated and the final OD600 determined as detailed above.
Culture conditions, growth assays, dose response and checkerboard assays using P. aeruginosa PA14 were performed as described in Example 1. Briefly, overnight cultures were grown in LB for 16 h, 37° C., 200 rpm then subcultured (1:500 dilution) into 10:90 for 6 h. Subcultures were standardized to OD600 of 0.10 and diluted 1:500 in fresh 10:90 before use. For the dose response assay, serial dilutions of compounds were added at 75 times the final concentration and diluted with 10:90 with cells to reach the desired final concentration. This was done in triplicate for technical replicates. Vehicle and sterile controls were included. The checkerboard assay was done similarly to the dose response assay but in an 8×8 format in a 96-well Nunc plate, with concentration of one drug increasing along the y-axis and the other along the x-axis. Sterility and vehicle controls were included with two columns allocated for each control. At least three biological replicates were repeated for the dose response and checkerboard assays.

P. aeruginosa PA14 [2] = assay: Thiopeptide + DSX checkerboard and dose-response assays; assay type: cell-based, Pseudomonas aeruginosa; conditions: thiopeptide + DSX checkerboard, 10:90
Description: (§1) Culture conditions, checkerboard assays using P. aeruginosa PA14 and dose-response assays were performed as described in Example 1. In addition to TS, other thiopeptides tested were siomycin A (SM), thiocillin I (TC), micrococcin P1 (MC), nosiheptide (NH), berninamycin A (BER), and geninthiocin A (GEN). For dose response assays of the combinations conducted in 10:90, DSX concentration was constant at 64 μg/mL.

[3] = Qualitative assay for antibiotic-Fe3+ coloured complexes; assay type: physicochemical; conditions: stock antibiotic + FeCl3 final 10 μM; room temperature 1 h
Description: […]. Binding of iron by a compound causes spectral shifts that can detected visually. Five μL of stock concentration antibiotic was added to 5 μL of FeCl3 to a final FeCl3 concentration of 10 μM and incubated at room temperature for one hour. Negative controls without iron are indicated by a negative sign and droplets with FeCl3 are indicated with a positive sign; vehicle controls with Milli-Q H2O and DMSO were included.
Compounds were arrayed in Nunc 96 microwell plates. Vehicle controls contained Milli-Q H2O with 1:75 dilution of each compound at a final concentration of […]. The experimental set-up contained the same components as the vehicle control, with the addition of […] FeCl3. The final volume in each well was 150 μL. The plate was incubated at room temperature for one hour and absorption spectra from 300 nm to 700 nm was read in 2 nm increments (Multiskan Go—Thermo Fisher Scientific). […]

P. aeruginosa PA14 [4] = assay: Checkerboards pinned to LB agar (bactericidal activity); assay type: cell-based, Pseudomonas aeruginosa; conditions: overnight 37° C.
Description: Checkerboards were pinned to LB agar plates using a sterile 96 pin tool. Plates were incubated overnight at 37° C. Independent experiments were conducted 3 times and a representative plate is shown.

[5] = Chrome azurol S (CAS) plate assay; assay type: physicochemical; conditions: 10 μL of 2 mg/mL; room temperature 1 h
[6] = system: P. aeruginosa clinical isolates; assay: Clinical isolates testing, P. aeruginosa; assay type: cell-based, Pseudomonas aeruginosa; conditions: TS 8.3 and DSX 32 μg/mL
Description: Clinical isolates of P. aeruginosa and A. baumannii were inoculated from −80° C. stocks into 200 μL LB broth and grown with shaking at 200 rpm, 16 h, 37° C. in Nunc 96-well plates. The overnight cultures were subcultured (1:25 dilution) into 10:90 and grown with shaking at 200 rpm, 2 h, 37° C. Vehicle controls consisted of 4 μL of DMSO, 144 μL 10:90 and 2 μL of subculture. Sterile controls consisted of 4 μL of DMSO and 146 μL 10:90. […]. The final volume of each well was 150 μL and each checkerboard was repeated at least three times. Plates were incubated with shaking at 200 rpm, 16 h, 37° C. and OD600 was measured (Multiskan Go—Thermo Fisher Scientific). The results were plotted as percent of control (wells containing only DMSO) using Prism (GraphPad).
Clinical isolates were grown and tested as described in Example 1. Briefly, clinical isolates were inoculated from glycerol stocks stored at −80° C. into Nunc 96-well plates and grown overnight at 37° C., for 16 h with shaking in LB (200 rpm). Overnights were subcultured (1:25) into fresh 10:90 medium and grown for 2 h under the same growth conditions. Subcultures were diluted 1:75 in fresh 10:90. Compounds were diluted 1:75 to obtain the final concentration. DOXY and CLI were added at a final concentration of 1 μg/mL, CO was used at 2 μg/mL, TRO was used at 4 μg/mL, TS was used at 8.3 μg/mL, and DSX was used at 32 μg/mL. Vehicle and sterility controls were included. Plates were incubated overnight with the same conditions. The OD600 was read (Multiscan Go—Thermo Fisher Scientific), analyzed using Excel, and the data plotted using Prism (GraphPad).
as §1

[7] = UV-Vis absorption spectra assay for iron chelation; assay type: physicochemical; conditions: 300 μM compound and FeCl3; 300-700 nm; 1 h
Description: Equimolar concentrations of compound and FeCl3 were added in deionized H2O to a final concentration of 300 μM and a spectrum of wavelengths from 300 nm to 700 nm read after 1 h incubation at room temperature. The black dashed line is the spectrum of the compound in the absence of iron. The black solid line is the spectrum after the addition of iron. […] Chloramphenicol and ampicillin were used as negative controls. Each assay was performed at least 3 times and averaged values are shown.
Compounds were arrayed in Nunc 96 microwell plates. Vehicle controls contained Milli-Q H2O with 1:75 dilution of each compound at a final concentration of […]. The experimental set-up contained the same components as the vehicle control, with the addition of […] FeCl3. The final volume in each well was 150 μL. The plate was incubated at room temperature for one hour and absorption spectra from 300 nm to 700 nm was read in 2 nm increments (Multiskan Go—Thermo Fisher Scientific).

[8] = checkerboard, IC50 isobolograms, PA14, 10:90

## Cc1nc(C)c(C)nc1C [2,3,5,6-tetrametylpyrazine, 2,3,5,6-Tetramethylpyrazine]
P. aeruginosa PA14 [1]; [8]
  synergy with TS: None

## C=C(NC(=O)C(=C)NC(=O)c1ccc2c(n1)-c1coc(n1)C(=C)NC(=O)C(=C)NC(=O)c1nc(oc1C)C(=C)NC(=O)[C@H](C(C)(C)O)NC(=O)C(=C)NC(=O)c1nc(oc1C)/C(=C/C)NC(=O)[C@H]([C@@H](C)O)NC(=O)c1csc-2n1)C(N)=O [BER, berninamycin A]
P. aeruginosa PA14 [2]
  synergy with DSX: did not synergize

## O=C(O)c1cn(C2CC2)c2cc(N3CCNCC3)c(F)cc2c1=O [CIP, ciprofloxacin]
P. aeruginosa PA14 [1]; PA14
  synergy with DSX: No synergy
[3]
  colour change upon addition of FeCl3: formed orange complexes

## Cc1cc(C2CCCCC2)n(O)c(=O)c1 [CO, Ciclopirox Olamine]
P. aeruginosa PA14 [4]
  mode of activity of compound alone: bacteriostatic
P. aeruginosa PA14 [1]; 2D checkerboard, PA14
  interaction with DSX: indifferent
P. aeruginosa PA14 [1]; PA14
  one-eighth of MIC against PA14 (test concentration): 2 µg/mL
P. aeruginosa PA14 [1]; VAN + compound checkerboards, PA14
  effect of 100 μM Fe^3+ on inhibitory activity: abrogated
P. aeruginosa PA14 [1]; [8]
  synergy with TS: synergized
P. aeruginosa PA14 [1]; checkerboard, PA14
  interaction with GN: antagonism
P. aeruginosa PA14 [1]; checkerboards, isobolograms and CI values, PA14
  relative potency of synergy with TS: most potent synergy; also recorded: greater synergy
[5]
  decolourization of CAS agar (relative affinity for iron): greatest decolourization
[6]
  growth of C0379, triple combinations with TS+DSX at higher concentrations of the compound: could inhibit its growth
[7]
  absorption spectrum after addition of FeCl3: showed shifts in their absorption spectra

## CO/N=C(\C(=O)N[C@@H]1C(=O)N2C(C(=O)O)=C(CSc3nc(=O)c(=O)[nH]n3C)CS[C@H]12)c1csc(N)n1 [Ceftriaxone, ceftriaxone]
[3]
  colour change upon addition of FeCl3: turned red
[7]
  absorption spectrum after addition of FeCl3: did not change

## O=C(N[C@H](CO)[C@H](O)c1ccc([N+](=O)[O-])cc1)C(Cl)Cl [Chloramphenicol]
P. aeruginosa PA14 [1]; PA14
  synergy with DSX: No synergy

## COc1cc(/C=C/C(=O)CC(=O)/C=C/c2ccc(O)c(OC)c2)ccc1O [Curcumin]
P. aeruginosa PA14 [1]; [8]
  synergy with TS: None

## C[C@H]1c2cccc(O)c2C(=O)C2=C(O)[C@]3(O)C(=O)C(C(N)=O)=C(O)[C@@H](N(C)C)[C@@H]3[C@@H](O)[C@@H]21 [DOXY, Doxycycline]
P. aeruginosa PA14 [1]; PA14
  one-eighth of MIC against PA14 (test concentration): 1 µg/mL

## O=[N+]([O-])[O-].O=[N+]([O-])[O-].O=[N+]([O-])[O-].[Ga+3] [GN, Gallium Nitrate]
P. aeruginosa PA14 [1]
  relative potency of synergy with TS: weakest
  synergy with TS: synergized

## C=C(NC(=O)c1csc(-c2nc3c(cc2O)-c2nc(cs2)C(=O)NC(C(C)O)C(=O)N/C(=C\C)c2nc(cs2)C(=O)NC2CC(O)C(=O)OCc4cccc5[nH]c(c(C)c45)C(=O)SCC(NC(=O)c4csc2n4)c2nc-3cs2)n1)C(N)=O (centres unmarked) [NH, nosiheptide]
P. aeruginosa PA14 [2]
  synergy with DSX: synergize

## CCn1cc(C(=O)O)c(=O)c2cnc(N3CCNCC3)nc21 [Pipemidic acid]
[3]
  colour change upon addition of FeCl3: formed orange complexes
[7]
  absorption spectrum after addition of FeCl3: shifted

## C=C(NC(=O)C(=C)NC(=O)c1csc(C2=N[C@@H]3c4csc(n4)[C@H]4NC(=O)c5csc(n5)[C@H]([C@](C)(O)[C@@H](C)O)NC(=O)[C@H]5CSC(=N5)/C(=C/C)NC(=O)[C@H]([C@@H](C)O)NC(=O)c5csc(n5)[C@]3(CC2)NC(=O)[C@H](C)NC(=O)C(=C)NC(=O)C(=C)NC(=O)[C@H](C(C)C)N[C@@H]2C=Cc3c([C@H](C)O)cc(nc3[C@H]2O)C(=O)O[C@@H]4C)n1)C(N)=O [SM, siomycin A]
P. aeruginosa PA14 [2]
  synergy with DSX: synergize

## C/C=C(\NC(=O)c1csc(-c2csc(-c3ccc4c(n3)-c3csc(n3)[C@H]([C@@H](C)O)NC(=O)c3csc(n3)[C@H](C(C)(C)O)NC(=O)c3csc(n3)/C(=C/C)NC(=O)[C@H]([C@@H](C)O)NC(=O)c3csc-4n3)n2)n1)C(=O)NC[C@@H](C)O [TC, thiocillin I]
P. aeruginosa PA14 [2]
  synergy with DSX: synergize

## COc1cc(Cc2cnc(N)nc2N)cc(OC)c1OC [Trimethoprim]
[3]
  colour change upon addition of FeCl3: turned golden-yellow

## O=C(O)[C@H]1O[C@@H](Oc2cc3oc(-c4ccccc4)cc(=O)c3c(O)c2O)[C@H](O)[C@@H](O)[C@@H]1O [baicalin, Baicalin]
P. aeruginosa PA14 [1]; [8]
  synergy with TS: None

## O=C(O[C@@H]1Cc2c(O)cc(O)cc2O[C@@H]1c1cc(O)c(O)c(O)c1)c1cc(O)c(O)c(O)c1 [epigallocatechin gallate, Epigallocatechin Gallate]
P. aeruginosa PA14 [1]; [8]
  synergy with TS: None

## COc1cc(/C=C/C(=O)O)ccc1O [ferulic acid, Ferulic Acid]
P. aeruginosa PA14 [1]; [8]
  synergy with TS: None

## O=C(CCc1ccc(O)cc1)c1c(O)cc(O)cc1O [phloretin, Phloretin]
P. aeruginosa PA14 [1]; [8]
  synergy with TS: None

## O=P([O-])([O-])O[C@H]1[C@H](OP(=O)([O-])O)[C@H](OP(=O)([O-])[O-])[C@H](OP(=O)([O-])O)[C@@H](OP(=O)([O-])[O-])[C@@H]1OP(=O)([O-])O.[Na+].[Na+].[Na+].[Na+].[Na+].[Na+].[Na+].[Na+].[Na+] [sodium phytate, Sodium phytate]
P. aeruginosa PA14 [1]
  synergy with TS: None

## NC[C@H]1O[C@H](O[C@H]2[C@H](O)[C@@H](O[C@H]3O[C@H](CO)[C@@H](O)[C@H](N)[C@H]3O)[C@H](N)C[C@@H]2N)[C@H](N)C[C@@H]1O [tobramycin]
P. aeruginosa PA14 [1]; PA14
  synergy with DSX: No synergy

## geninthiocin A
P. aeruginosa PA14 [2]
  synergy with DSX: did not synergize

## micrococcin P1 [MP]
P. aeruginosa PA14 [2]
  synergy with DSX: synergize
